The structures appear in SMILES notation.

The subject of assay [1] is Sendai virus. Kind of assay: Secretory IgA induction by Sendai virus live vaccine, trachea and bronchia wash, ELISA. The class given is in vivo, mouse. The note with it: 500 CIU vaccine, 14 days after inoculation. The procedure:
The administraion of provitamin and inoculation of a vaccine were performed in the same manner as in Example 1. 14 Days after the inoculation of vaccine, the mouse was sacrificed, the trachea and bronchia were twice washed with 1 ml of PBS (phosphate buffered saline), and IgA recovered in PBS was measured by the enzyme linked immunosorbent assay (ELISA).
Sendai virus was fixed on a plate and reacted with a test solution. Thereafter, peroxidase marker anti-mouse IgA immunoglobulin was reacted and then phenylenediamine 2HCl was added to cause coloration. OD 492 was measured and from the calibration curve obtained based on the standard IgA, the IgA amount in the test solution was determined.
In general terms: ELISA stands for enzyme-linked immunosorbent assay.

For assay [2], the system named is Fibrosarcoma SMT-5 (target cell). Kind of assay: Activity of sampled macrophages against target cells (3H-thymidine uptake). The class given is cell-based, mouse. The note with it: 500 CIU vaccine, macrophages sampled day 14, target:effector 1:7, 24 hours. How it is done: (§1) The administration of provitamin and inoculation of a vaccine (500 CIU) were performed in the same manner as in Example 1. 14 Days after the inoculation of the vaccine, macrophages were sampled from the abdominal cavity of the mouse and the number of macrophages was counted through a microscope. Also, the activity of the macrophage was examined as follows. Fibrosarcoma SMT-5 (target cell) and the sampled macrophages (effector cell) were mixed at a ratio of 1:7 and cultured in CO2 medium for 24 hours. 8 Hours before the completion of culture, ^3H-thymidine was added and the amount of ^3H-thymidine taken up into the residual target cells was measured by a liquid scintillation counter. From the value obtained, the activity of macrophage was determined. The amount of ^3H-thymidine in the control group was the amount of ^3H-thymidine taken up into the target cells where the macrophages were not added.

Assay [3] has as its system Sendai virus. Kind of assay: Circulating antibody unit (HIU) in serum by hemagglutination inhibition (HI) reaction after vaccine administration. The note with it: 500 CIU vaccine nasally. The class given is in vivo, mouse. The procedure: The provitamins prepared to have a composition in the following Formulation Examples 1 to 4 were individually or in combination (hereinafter referred to as “provitamin”) dissolved in a phosphate buffered saline (PBS) to a concentration of 0.5% and then continuously administered perorally or peritoneally to a mouse (ICR, 3 weeks old, male) from two weeks before the administration of a vaccine. The sample was administered such that APM per day was 80 mg/kg-body weight in the case of peroral administration and the dose per day was 40 mg/kg-body weight in the case of injection.
The vaccine used here was TR-5 strain which is an attenuated strain of Sendai virus, and 500 CIU (cell infectious unit) thereof was nasally administered to a mouse under ether anesthesia. That is, a stock solution (10^6 CIU/ml) of TR-5 strain was diluted with PBS and 50 μl of each sample was nasally administered. After the administration of vaccine, the serum was sampled in aging (inoculation day, after 7 days, after 14 days and after 21 days) and the antiviral antibody unit in the serum was measured by the hemagglutination inhibition (HI) reaction which inhibits the hemagglutination (HA) reaction.
The HA reaction is a reaction where a virus particle or an HA antigen adsorbs to an erythrocyte and combines the erythrocytes with each other to cause hemagglutination. In the measurement of the HA unit, 2-fold step dilution series of a virus solution are prepared, a constant amount of erythrocytes is added to each dilution and after the passing of a predetermined time, the agglutination image is examined. The HA unit (HAU) is the reciprocal of the highest dilution number in a test tube showing agglutination positive. The HA reaction is inhibited by previously adding an antiviral antibody to the virus solution. This is the HI reaction.
To 25 μl of a serum subjected to 2-fold step dilution, 25 μl of a virus solution adjusted to 16 HAU was added and allowed to stand at room temperature for 1 hour. Subsequently, 50 μl of a 0.5% chicken erythrocyte suspension was added and allowed to stand at 4° C. for 1 hour. Thereafter, the HI unit was determined.

For another assay, the system named is macrophages. Kind of assay: Number of macrophages sampled from the abdominal cavity 14 days after vaccine inoculation. The class given is in vivo, mouse. The note with it: 500 CIU vaccine, 14 days after inoculation. The procedure:
as §1

Assay [4] concerns Sendai virus strongly toxic strain. Kind of assay: Survival rate after nasal infection with Sendai virus strongly toxic strain. The class given is in vivo, mouse. The note with it: challenge 15 LD50 at day 14, 20 days after infection. The procedure: The administration of provitamin and inoculation of a vaccine were performed in the same manner as in Example 1, and 14 days after the inoculation of attenuated vaccine, Sendai virus strongly toxic strain (1.7×10^7 CIU/ml) was subjected to 15-hold dilution in PBS. Subsequently, 70 μl of the dilution (about 8×10^4 CIU:15 LD50) was nasally infected to a mouse under ether anesthesia and 20 days after the infection with the strongly toxic strain, the survival rate of mice was examined.
The test solution was step-diluted and each dilution was used for a group of animals. The life and death were examined and the point of dilution degree where 50% of death was recognized was designated as LD50.

[5] abbreviates: peritoneal administration of provitamin 40 mg/kg per day, day 0.
[6] abbreviates: peritoneal administration of provitamin 40 mg/kg per day, day 7.
Where [7] appears, read: peritoneal administration of provitamin 40 mg/kg per day, day 14.
[8] abbreviates: peritoneal administration of provitamin 40 mg/kg per day, day 21.
The mark [9] stands for this setting: peroral administration of provitamin 80 mg/kg per day, day 0 after inoculation.
The mark [10] stands for this setting: peroral administration of provitamin 80 mg/kg per day, day 7.
Where [11] appears, read: peroral administration of provitamin 80 mg/kg per day, day 14.
Where [12] appears, read: peroral administration of provitamin 80 mg/kg per day, day 21.
Setting [13] is: peroral, amount of vaccine inoculated 0 CIU.
The mark [14] stands for this setting: peroral, amount of vaccine inoculated 50 CIU.
Where [15] appears, read: peroral, amount of vaccine inoculated 500 CIU.

`O=C1O[C@H]([C@@H](O)CO)C(O)=C1OP(=O)(O)O` [Formulation Example 1, L-ascorbic acid-2-monophosphate]: the IgA is reported as 69 U/μg with Sendai virus [1] (peritoneal route) and 51 U/μg in the assay with Sendai virus [1] (peroral route). In addition, the “Macrophage Activity” value was 22.1 in assay [2] (peritoneal route) and 20.5 in assay [2] (peroral route). Also, the HIU is reported as less than 16 HIU in the assay with Sendai virus [3] (setting [5]); 16 HIU in the assay on Sendai virus [3] (setting [6]); 32 HIU with Sendai virus [3] (setting [7]); 64 HIU with Sendai virus [3] (setting [8]); less than 16 HIU with Sendai virus [3] (setting [9]); less than 16 HIU in the assay on Sendai virus [3] (setting [10]). Moreover, the HIU with Sendai virus [3] (setting [11]) is 16 HIU; in the assay on Sendai virus [3] (setting [12]), 64 HIU. Further, the figures for the Macrophage/Body with macrophages (peritoneal route) and in the assay with macrophages (peroral route) were 9.1 × 10^6 and 6.8 × 10^6, respectively. Also, the “Survival Rate” value in assay [4] (peritoneal, amount of vaccine inoculated 0 CIU) was 0/10; in assay [4] (peritoneal, amount of vaccine inoculated 50 CIU) it was 8/10; in assay [4] (peritoneal, amount of vaccine inoculated 500 CIU) it was 8/10; in assay [4] (setting [13]) it was 0/10; in assay [4] (setting [14]), 9/10; in assay [4] (setting [15]), 9/10.
For the molecule `O=C1O[C@H]([C@@H](O)CO)C(O)=C1OP(=O)(O)O` [Formulation Example 2, L-ascorbic acid-2-monophosphate], the IgA in the assay with Sendai virus [1] (peroral route) stood at 69 U/μg. For the same molecule, the “Macrophage Activity” value in assay [2] (peroral route) came out at 20.2. Also, the HIU was less than 16 HIU with Sendai virus [3] (setting [5]); less than 16 HIU in the assay with Sendai virus [3] (setting [6]); 32 HIU in the assay with Sendai virus [3] (setting [7]); 64 HIU with Sendai virus [3] (setting [8]); less than 16 HIU in the assay on Sendai virus [3] (setting [9]); less than 16 HIU in the assay with Sendai virus [3] (setting [10]). The HIU is 16 HIU with Sendai virus [3] (setting [11]) and 64 HIU with Sendai virus [3] (setting [12]). Further, in the assay on macrophages (peroral route), the Macrophage/Body is listed as 6.5 × 10^6. Moreover, the “Survival Rate” value in assay [4] (setting [13]) was 1/10; in assay [4] (setting [14]) it was 9/10; in assay [4] (setting [15]) it was 10/10.

The record behind these values is patent US20030035812A1, “Immune enhancement compositions and use thereof” (priority 2000, published 2003).
